# Results taken from patent US9458102B2 (priority 2011, dated 2016).
# How the values were obtained:
# [1] = system: rd1 mouse; experiment: rd1 mouse model of retinal degeneration, subretinal injection; format: in vivo; details: subretinal injection at P12, estimated final concentration 5 μM, harvested at P17
# Description: FIG. 9 is a set of four images of retinal sections from an untreated rd1 mouse euthanized at P17 (upper panels) and an rd1 mouse receiving a subretinal injection of 30 μM compound 8 (final concentration ^˜5 μM) at P12 and euthanized at P17 (lower panels). The photographs show standard histological analysis of retinal sections stained with cresol purple. The right panels are expansions of similar regions in each retina near the optic nerve. The white brackets mark the outer nuclear layer containing photoreceptor nuclei.
# The rd1 mouse is a newer designation for the classic rd mouse, which harbors a nonsense mutation in the PDE6B gene. […] The rd phenotype has been studied for many years, and allows for more rapid assessment of protection strategies. However, the onset of rod photoreceptor death overlaps with the later stages of development and synaptogenesis, making it difficult to distinguish between the primary effects of rod degeneration and the consequences of abnormal neural development. The rd10 phenotype is more reminiscent of typical human RP.
# FIG. 9 is a comparison of two rd1 eyes, one untreated (upper panel) and one receiving a subretinal injection of compound 8 to an estimated final concentration of 5 μM at P12. […] Indeed, the entire retina was healthier in appearance in the treated eye.
# [2] = system: adult wild-type mice; experiment: ERG in adult wild-type mice during 10-day treatment; format: in vivo, mouse; details: similar 10-day treatment
# Text: In separate experiments on adult wild-type mice, the ERG a and b waves were blocked during a similar 10-day treatment, as expected for a concentration in excess of that required to completely block CNG channels. In the rd10 mouse some degeneration was probably underway before the treatment began.
SMILES,rescuing effect on retina [1],outer nuclear layer thickness ([1]; untreated eye one cell thick),ERG a and b waves [2]
"CCCCNc1ccc(C(=S)NCCN(C)C)cc1 [Compound 8, 4-(Butylamino)-N-(2-(dimethylamino)ethyl)benzothioamide]",very noticeable rescuing effect,about three cells thick,–
"CCCCCCCCNc1ccc(C(=S)NCCN(C)C)cc1 [Compound 9, 4-(Octylamino)-N-(2-(dimethylamino)ethyl)benzothioamide]",–,–,blocked
